The numbers were not newly measured in US4127527A, “Novel pentadecapeptides, intermediates therefor, and compositions and methods employing said pentadecapeptides” (priority 1977, dated 1978), which cites them from elsewhere.

Data set [1] relates to brain opiate receptor sites. Conditions: natural peptide; Bradbury et al., Nature 260, 793 (1976).
The test system of data set [2] is rat. Conditions: injected directly into the brain of the rat; Belluzzi et al., Nature 260, 625 (1976).

As to “H-Tyr-Gly-Gly-Phe-Met-OH [methionine enkephalin]”, in data set [1], the “binding to partially purified brain opiate receptor sites” value is “binds stereo-specifically”. The analgesic activity entry in data set [2] is reported as “only weak analgesic agent of short duration”.
